Test results as given in patent US4251520A, “Glucofuranose derivatives” (priority 1976, dated 1981).
Read-outs that look alike come from different tables or passages of the source.

Assays:
Antipyretic activity = assay type: in vivo, rat; conditions: for Antipyretic activity (potency in comparison with aspirin = 100): 400 mg/kg p.o. rat; for Antipyretic action (in words): rat, in vivo
[1] = system: edema induced by formalin; assay: Anti-inflammatory activity, formalin-induced edema; assay type: in vivo, rat; conditions: po; for inhibition in vivo at 500 mg/kg: read-out: % inhibition of edema induced by formalin
edema induced by dextran = assay: Anti-inflammatory activity, dextran-induced edema; assay type: in vivo, rat; conditions: po; for inhibition in vivo at 500 mg/kg: read-out: % inhibition of edema induced by dextran
spasm by acetylcholine = assay: Antispasmodic activity in vitro, spasm by acetylcholine
[2] = system: edema induced by carrageenan; assay: Anti-inflammatory activity, carrageenin-induced oedema; assay type: in vivo, rat; conditions: for inhibition in vivo at 500 mg/kg: po, read-out: % inhibition of edema induced by carrageenan
Text: Beginning, therefore, with D-glucose, we have prepared 1,2:5,6-di-O-isopropylidene-α-D-glucofuranose (II): [drawing 2] as well as 1,2-O-isopropylidene-α-D-glucofuranose and 1,2-O-isopropylidene-3,5,6-tri-O-benzyl-α-D-glucofuranose (1; Glen W. L., Myers G. S., Grant G. A., J. Chem. Soc., 2568/1951; (2) Meyer A. S., Reichstein T., Helv. Chim. Acta, 29, 139/1946; (3) Huber G., Rossi A., Helv. Chim. Acta, 51, 1185/1968) and have compared these compounds with (I) for anti-inflammatory activity against carrageenin-induced oedema (500 mg/kg, p.o. in rats).

in vivo = conditions: mouse, in vivo, po
[3] = Analgesic activity, hot plate test; assay type: in vivo, mouse; conditions: po, read-out: Analgesic activity, increase of reaction time %
capillary permeability [4] = conditions: 500 mg/kg p.o. mouse
granuloma = assay: Granuloma cotton pellet test; conditions: for inhibition in vivo at 200 mg/kg: Rattus norvegicus, po, read-out: % inhibition of granuloma; for Inhibitory activity in the granuloma cotton pellet test (in words): rat, in vivo
spasm by histamine = assay: Antispasmodic activity in vitro, spasm by histamine
[5] = Analgesic activity, protection from writhing; assay type: in vivo, mouse; conditions: po, read-out: Analgesic activity, protection from writhing %
capillary permeability [6] = assay: Capillary permeability test
[7] = system: spasms induced by histamine and acetylcholine; assay: Antispasmodic activity tests in vitro (overall)
[8] = system: oedema induced by carrageenin, dextran and formalin; assay: Anti-inflammatory activity tests (oedema by carrageenin, dextran and formalin); assay type: in vivo; conditions: rat
[9] = Preliminary pharmacological screening (overall); assay type: in vivo
mouse = assay: in vivo; conditions: oral route, even at a dose of 4,000 mg./kg.
[10] = system: edema induced by carrageenan; assay: Anti-inflammatory activity, carrageenin-induced oedema; assay type: in vivo; conditions: po; at a dose of 200 mg/kg p.o., rat (footnote e)
[11] = 500 mg/kg p.o. mouse, hot plate test
[12] = at a dose of 400 mg/kg p.o., mouse (footnote d)
[13] = at a dose of 200 mg/kg p.o., rat (footnote e)

Structure (SMILES)	Antipyretic activity (potency in comparison with aspirin = 100) (Antipyretic activity) [%]	Antipyretic action (in words) (Antipyretic activity)	Antispasmodic activity in vitro, ED50, inhib. of spasm by acetylcholine (spasm by acetylcholine) [µg/mL]	LD50 (in vivo) [mg/kg]	inhibition in vivo at 200 mg/kg (granuloma) [%]	Antispasmodic activity in vitro, ED50, inhib. of spasm by histamine (spasm by histamine) [µg/mL]	inhibition in vivo at 500 mg/kg ([1]; 500 mg/kg p.o. rat) [%]	inhibition in vivo at 500 mg/kg (edema induced by dextran; 500 mg/kg p.o. rat) [%]	inhibition in vivo at 500 mg/kg ([2]; 500 mg/kg p.o. rat) [%]	change in vivo at 500 mg/kg [3, 11] [%]	inhibition in vivo at 500 mg/kg ([5]; 500 mg/kg p.o. mouse) [%]	Anti-inflammatory potency compared with aspirin and phenylbutazone (in words) [8]	Inhibition of oedema induced by carrageenin, dextran and formalin, compared with (I) (in words) [8]	Capillary permeability, decrease % (capillary permeability [6]; 500 mg/kg p.o. mouse) [%]	Oral toxicity / tolerance (in words) (mouse)	further results
CC1(C)OCC(C2OC3OC(C)(C)OC3C2O)O1 (stereo not shown)	63	present	> 100	4000	0	> 100	–	–	–	–	–	–	–	–	–	inhibition in vivo at 500 mg/kg ([1]; Rattus norvegicus): 19%; inhibition in vivo at 500 mg/kg (edema induced by dextran; Rattus norvegicus): 0%; inhibition in vivo at 500 mg/kg ([2]; Rattus norvegicus): 33%; Anti-inflammatory activity compared with (I), preliminary tests ([2]; carrageenin-induced oedema, 500 mg/kg, p.o. in rats): fully comparable with that of (I); change in vivo at 500 mg/kg ([3]; Mus musculus): 0%; Capillary permeability, decrease % (capillary permeability [4]): 46%; inhibition in vivo at 500 mg/kg ([5]; Mus musculus): 20%
CC(=O)Oc1ccccc1C(=O)O [Aspirin, reference compound]	–	–	> 100	1000	12	> 100	29	47	53	70	100	–	–	–	–	Capillary permeability, decrease % (capillary permeability [6]; [12]): 73%; Antispasmodic activity (in words) [7]: inactive
COC1C(C2COC(C)(C)O2)OC2OC(C)(C)OC21 (stereo not shown) [III]	70	retained	> 100	2000	0	100	25	35	51	20	20	as potent as or more potent than aspirin and phenylbutazone	clearly more active than (I)	37	–	–
C=CCOC1C(C2COC(C)(C)O2)OC2OC(C)(C)OC21 [IX, 3-O-allyl-1,2:5,6-di-O-isopropylidene-α-D-glucofuranose]	44	retained	60	> 4000	16	60	29	39	68	0	20	as potent as or more potent than aspirin and phenylbutazone	clearly more active than (I)	43	well tolerated	Spectrum and potency of action in comparison with (I) (in words) [9]: analogous or even better spectrum and potency of action; Activity against spasms produced by acetylcholine (in words) (spasm by acetylcholine): moderately active; Inhibitory activity in the granuloma cotton pellet test (in words) (granuloma): some inhibitory activity
CCCCC1C(=O)N(c2ccccc2)N(c2ccccc2)C1=O [Phenylbutazone, reference compound]	85	–	> 100	–	31	> 100	–	–	–	10	100	–	–	–	–	inhibition in vivo at 200 mg/kg [1, 13]: 13%; inhibition in vivo at 200 mg/kg (edema induced by dextran; [13]): 15%; inhibition in vivo at 200 mg/kg [10]: 52%; Capillary permeability, decrease % (capillary permeability [6]; [12]): 75%; Antispasmodic activity (in words) [7]: inactive
CCCCCOC1C(C2COC(C)(C)O2)OC2OC(C)(C)OC21 [VII, 3-n-Pentyl-1,2:5,6-di-O-isopropylidene-α-D-glucofuranose]	0	–	> 100	4000	19	> 100	48	31	62	0	20	as potent as or more potent than aspirin and phenylbutazone	clearly more active than (I)	4	–	Inhibitory activity in the granuloma cotton pellet test (in words) (granuloma): some inhibitory activity
CCCCCCCCCCCCCCCCOC1C(C2COC(C)(C)O2)OC2OC(C)(C)OC21 (stereo not shown) [VIII]	0	–	–	> 4000	–	–	0	0	13	0	20	–	–	22	well tolerated	–
CC(=O)OC1C(C2COC(C)(C)O2)OC2OC(C)(C)OC21 [XII, 3-Acetyl-1,2:5,6-di-O-isopropylidene-α-D-glucofuranose]	0	–	> 100	> 4000	–	> 100	9	0	21	20	0	–	–	26	well tolerated	–
CC1(C)OCC(C2OC3OC(C)(C)OC3C2OCc2ccccc2)O1 (stereo not shown) [XI]	8	–	> 100	> 4000	–	> 100	21	0	39	0	20	–	–	29	well tolerated	–
